Source: patent US20240408223A1 (REGENERON PHARMACEUTICALS, INC., priority 2017, published 2024)
In brackets after ≈: the same amount, converted by molar mass. *1 amine or outer side, *2 acyl side, *3 side chain or, on linkers, in order; H or OH if unused. Where a SMILES comes first, the peptide text is derived from it. [ ]: non-standard residue; d: D form. The star is where a group is joined. X4 = C[N+](C)(C)CCNC(=O)CCOCCOCCOCCOCCn1nnc2c1CCCCCC2OCC(=O)*; Dolaproine = CO[C@@H]([C@@H]1CCCN1)[C@@H](C)C(=O)O; X3 = O=C(COC1CCCCCc2c1nnn2CCOCCOCCOCCOCCOCCO)*; Dil = CC[C@H](C)[C@H](NC)[C@@H](CC(=O)O)OC; PABC = O=C(OCc1ccc(N[*:1])cc1)[*:2]; DBCO = C1#Cc2ccccc2N(*)Cc2ccccc21; X1 = C[C@@H](N*)[C@@H](O)c1ccccc1; Cit = NC(=O)NCCC[C@H](N)C(=O)O; PEG4 = NCCOCCOCCOCCOCCC(=O)O; Suc = O=C(CCC(=O)[*:2])[*:1]; NMeV = CN[C@H](C(=O)O)C(C)C

Legend:
[1] = Solubility test in water, LCMS against standard curve
Experimental: (§1) The DMSO solution (1 mg/mL, 0.5 mL) was diluted with water (4.5 mL) to generate solution A (0.1 mg/mL, 5 mL, 0.5 mg). Solution A (0.1 mg/mL, 0.5 mL) was diluted with water (4.5 mL) to generate solution B (0.01 mg/mL, 5 mL, 0.05 mg). Solution B (0.01 mg/mL, 0.5 mL) was diluted with water (4.5 mL) to generate solution C (1 μg/mL, 5 mL, 5 μg). Solution C (1 μg/mL, 0.5 mL) was diluted with water (4.5 mL) to generate solution D (0.1 μg/mL, 5 mL, 0.5 μg). The testing sample (0.05 mg) was suspended in water (1 mL), and was sonicated for 5-30 min to dissolve the sample. If no clear solution was observed, the resulting suspension was centrifuged and the clear supernatant solution was collected for analysis. All the standard solutions A, B, C, D and sample solutions were tested using same method on the same LC-MS instrument. Solubility was assessed by LCMS and calculated based on a standard curve.

[2] = pH stability in buffers, determined by LC-MS; format: physicochemical
Experimental: pH stability was assessed as follows. 0.1 mg of sample was dissolved into 0.2-0.3 mL of DMSO, and the resulting solution was added dropwise into different pH buffers (1 mL) while maintain clear solutions during testing time period. The samples were collected from several time points (e.g., over 72 hours), and pH stability was determined by LC-MS. pH buffer was prepared as follows: pH 8.0 sodium borate buffer: Add 9.534 g Sodium borate decahydrate, 1.461 g Sodium chloride, and 0.393 g DTPA to 900 mL distilled water, make sure all powers dissolve completely, then make final volume to 1 L by adding water. pH 7.4 sodium borate buffer: Add […], 9.534 g Sodium borate decahydrate, 1.461 g Sodium chloride, and 0.393 g DTPA to 900 mL distilled water, make sure all powers dissolve completely, then make final volume to 1 L by adding water. pH 5.0 succinate acid buffer: Add 10 mM succinate acid to 150 mL distilled water, and then change the pH to pH5.0 by adding 0.5M NaOH, then make final volume to 250 mL by adding water. pH 7.4 PBS buffer: commercially available. Stability was assessed at 72 hours by LCMS.

Human liver Cathepsin B = Human liver Cathepsin B (Homo sapiens, UniProt P07858); assay: Cathepsin B cleavage assay of linker-payloads
Experimental: For the assay, the linker-payload stock solution (10 mM of linker-payload in DMSO) was added into a solution of 100 mM NaOAc, 10 mM dithiothreitol, at pH5 to obtain a 50 μM substrate solution. […] The Cathepsin B and substrate solution was mixed with and without 10 mM of a Cathepsin B inhibitor (CA074; APE Bio, Cat #A1926), and incubated at 37° C. for 4 hours. Following the 4 hour incubation, acetic acid and then acetonitrile were added to stop the reaction. The quenched samples then underwent centrifugation at 14,000 rpm. Aliquots of the resultant supernatants were then diluted with equal volume of water and analyzed by LC/MS to determine the amount of payload released.

[3] = Solubility (mg/mL), in water, Table 3-1
[4] = pH7.4 and 8 buffer, RT, Table 3-1
[5] = Solubility (mg/mL), in water, Table 3
[6] = pH7.4 or 8 buffer, room temperature, Table 3

Experimental for physchem: as §1

| Compound | solubility [1, 3] [µg/mL] | pH Stability [2, 4] | CapB cleavage rate (%) at 4 hrs (Human liver Cathepsin B; Table 1D) [%] | CapB cleavage rate (%) at 4 hrs (Human liver Cathepsin B; Table 1C) [%] | further results |
| --- | --- | --- | --- | --- | --- |
| CC[C@H](C)[C@@H]([C@@H](CC(=O)N1CCC[C@H]1[C@H](OC)[C@@H](C)C(=O)N[C@H](C)[C@@H](O)c1ccccc1)OC)N(C)C(=O)[C@@H](NC(=O)[C@H](C(C)C)N(C)C(=O)OCc1ccc(NC(=O)[C@H](CCCNC(N)=O)NC(=O)[C@@H](NC(=O)[C@@H](CCCCNC(=O)COC2CCCCCc3c2nnn3CCOCCOCCOCCOCCOCCP(=O)(O)O)NC(=O)CCOCCOCCOCCOCCNC(=O)CCC(=O)N2Cc3ccccc3C#Cc3ccccc32)C(C)C)cc1)C(C)C (stereo partly shown) | 250 (≈ 108 µM) | Y (stable in pH7.4 and 8 buffer at RT for more than 3 days) | 50 |  |  |
| CC[C@H](C)[C@@H]([C@@H](CC(=O)N1CCC[C@H]1[C@H](OC)[C@@H](C)C(=O)N[C@H](C)[C@@H](O)c1ccccc1)OC)N(C)C(=O)[C@@H](NC(=O)[C@H](C(C)C)N(C)C(=O)OCc1ccc(NC(=O)[C@H](CCCNC(N)=O)NC(=O)[C@@H](NC(=O)[C@@H](CCCCNC(=O)COC2CCCCCc3c2nnn3CCOCCOCCOCCOCCOCCO)NC(=O)CCOCCOCCOCCOCCNC(=O)CCC(=O)N2Cc3ccccc3C#Cc3ccccc32)C(C)C)cc1)C(C)C (stereo partly shown) [1a] ({DBCO-Suc-PEG4}-[dK](X3)V[Cit][PABC][NMeV]V[Dil][Dolaproine]-X1) |  | Y (stable in pH7.4 and 8 buffer at RT for more than 3 days) |  |  | solubility (physchem): 170 µg/mL (≈ 75.3 µM) |
| CCCC1O[C@@H]2C[C@H]3[C@@H]4C[C@H](F)C5=CC(=O)C=C[C@]5(C)[C@@]4(F)[C@@H](O)C[C@]3(C)[C@]2(C(=O)CNC(=O)OCc2ccc(NC(=O)[C@H](CCCNC(N)=O)NC(=O)[C@@H](NC(=O)[C@@H](CCCCNC(=O)COC3CCCCCc4c3nnn4CCOCCOCCOCCOCCC(=O)NCCS(=O)(=O)O)NC(=O)CCOCCOCCOCCOCCNC(=O)CCC(=O)N3Cc4ccccc4C#Cc4ccccc43)C(C)C)cc2)O1 (stereo partly shown) [1e] | > 10000 | Y (stable in pH7.4 and 8 buffer at RT for more than 3 days) | 79.6 | 79.6 | solubility [1, 5]: > 10000 µg/mL; pH Stability [2, 6]: Y (stable in pH7.4 or 8 buffer at room temperature for more than 3 days) |
| CCCC1O[C@@H]2C[C@H]3[C@@H]4C[C@H](F)C5=CC(=O)C=C[C@]5(C)[C@@]4(F)[C@@H](O)C[C@]3(C)[C@]2(C(=O)CNC(=O)OCc2ccc(NC(=O)[C@H](CCCNC(N)=O)NC(=O)[C@@H](NC(=O)[C@@H](CCCCNC(=O)COC3CCCCCc4c3nnn4CCN(CC(=O)NCCS(=O)(=O)O)CC(=O)NCCS(=O)(=O)O)NC(=O)CCOCCOCCOCCOCCNC(=O)CCC(=O)N3Cc4ccccc4C#Cc4ccccc43)C(C)C)cc2)O1 (stereo partly shown) [1f] |  |  | 63.0 | 63.0 |  |
| CCCC1O[C@@H]2C[C@H]3[C@@H]4C[C@H](F)C5=CC(=O)C=C[C@]5(C)[C@@]4(F)[C@@H](O)C[C@]3(C)[C@]2(C(=O)COc2ccc(NC(=O)[C@H](C)NC(=O)[C@@H](NC(=O)[C@@H](CCCCNC(=O)COC3CCCCCc4c3nnn4CCOCCOCCOCCOCCC(=O)NCCS(=O)(=O)O)NC(=O)CCOCCOCCOCCOCCNC(=O)CCC(=O)N3Cc4ccccc4C#Cc4ccccc43)C(C)C)cc2)O1 (stereo partly shown) [1j] | > 10000 | Y (stable in pH7.4 and 8 buffer at RT for more than 3 days) | 30.8 | 30.8 | solubility [1, 5]: > 10000 µg/mL; pH Stability [2, 6]: Y (stable in pH7.4 or 8 buffer at room temperature for more than 3 days) |
| CCCC1O[C@@H]2C[C@H]3[C@@H]4C[C@H](F)C5=CC(=O)C=C[C@]5(C)[C@@]4(F)[C@@H](O)C[C@]3(C)[C@]2(C(=O)COc2ccc(NC(=O)[C@H](CCCNC(N)=O)NC(=O)[C@@H](NC(=O)[C@@H](CCCCNC(=O)COC3CCCCCc4c3nnn4CCOCCOCCOCCOCCC(=O)NCCS(=O)(=O)O)NC(=O)CCOCCOCCOCCOCCNC(=O)CCC(=O)N3Cc4ccccc4C#Cc4ccccc43)C(C)C)cc2)O1 (stereo partly shown) [1k] | > 1000 | Y (stable in pH7.4 and 8 buffer at RT for more than 3 days) | 31.0 | 31.0 | solubility [1, 5]: > 1000 µg/mL; pH Stability [2, 6]: Y (stable in pH7.4 or 8 buffer at room temperature for more than 3 days) |
| CC(C)[C@H](NC(=O)[C@@H](CCCCNC(=O)COC1CCCCCc2c1nnn2CCOCCOCCOCCOCCC(=O)NCCS(=O)(=O)O)NC(=O)CCOCCOCCOCCOCCNC(=O)CCC(=O)N1Cc2ccccc2C#Cc2ccccc21)C(=O)N[C@@H](C)C(=O)Nc1ccc2c(c1)[C@@]1(C)CCC[C@](C)(C(=O)NC(=O)[C@@]3(C)CCC[C@]4(C)c5cc(O)ccc5CC[C@@H]34)[C@@H]1CC2 (stereo partly shown) [1m] |  |  | 44.2 | 44.2 |  |
| CC(C)[C@H](NC(=O)[C@@H](CCCCNC(=O)COC1CCCCCc2c1nnn2CCOCCOCCOCCOCCC(=O)NCCS(=O)(=O)O)NC(=O)CCOCCOCCOCCOCCNC(=O)CCC(=O)N1Cc2ccccc2C#Cc2ccccc21)C(=O)N[C@@H](CCCNC(N)=O)C(=O)Nc1ccc(COC(=O)N[C@@H](CO)C(=O)Nc2ccc3c(c2)[C@@]2(C)CCC[C@](C)(C(=O)NC(=O)[C@@]4(C)CCC[C@]5(C)c6cc(O)ccc6CC[C@@H]45)[C@@H]2CC3)cc1 (stereo partly shown) [1q] |  | Y (stable in pH7.4 and 8 buffer at RT for more than 3 days) | 30.4 |  | solubility [1]: 170 µg/mL (≈ 75.7 µM) |
| CCCC1O[C@@H]2C[C@H]3[C@@H]4C[C@H](F)C5=CC(=O)C=C[C@]5(C)[C@@]4(F)[C@@H](O)C[C@]3(C)[C@]2(C(=O)CNC(=O)OCc2ccc(NC(=O)[C@H](CCCNC(N)=O)NC(=O)[C@@H](NC(=O)CCOCCOCCOCCOCCNC(=O)CCC(=O)N3Cc4ccccc4C#Cc4ccccc43)C(C)C)cc2)O1 (stereo partly shown) [10a] | 20 (≈ 14.2 µM) | Y (stable in pH7.4 and 8 buffer at RT for more than 3 days) | 18.6 |  |  |
| CC(C)[C@H](NC(=O)CCOCCOCCOCCOCCNC(=O)CCC(=O)N1Cc2ccccc2C#Cc2ccccc21)C(=O)N[C@@H](C)C(=O)Nc1ccc2c(c1)[C@@]1(C)CCC[C@](C)(C(=O)NC(=O)[C@@]3(C)CCC[C@]4(C)c5cc(O)ccc5CC[C@@H]34)[C@@H]1CC2 [10b, 1-(4-{2-Azatricyclo[10.4.0.0^4,9]hexadeca-1(12),4(9),5,7,13,15-hexaen-10-yn-2-yl}-4-oxobutanamido)-N-[(1 S)-1-{[(1 S)-1-{[(4bS,8S,8aR)-8-{[(1 S,4aS,10aR)-6-hydroxy-1,4a-dimethyl-1,2,3,4,4a,9,10,10a-octahydrophenanthrene-1-carbonyl]carbamoyl}-4b,8-dimethyl-4b,5,6,7,8,8a,9,10-octahydrophenanthren-3-yl]carbamoyl}ethyl]carbamoyl}-2-methylpropyl]-3,6,9,12-tetraoxapentadecan-15-amide] |  |  |  |  | solubility [1]: < 100 µg/mL |
| CCCC1O[C@@H]2C[C@H]3[C@@H]4C[C@H](F)C5=CC(=O)C=C[C@]5(C)[C@@]4(F)[C@@H](O)C[C@]3(C)[C@]2(C(=O)COc2ccc(NC(=O)OCc3ccc(NC(=O)[C@H](CCCNC(N)=O)NC(=O)[C@@H](NC(=O)CCOCCOCCOCCOCCNC(=O)CCC(=O)N4Cc5ccccc5C#Cc5ccccc54)C(C)C)cc3)cc2)O1 (stereo partly shown) [10c] |  | Y (stable in pH7.4 and 8 buffer at RT for more than 3 days) | <5 |  | solubility (physchem; Solubility): < 10 µg/mL; solubility (physchem; Solubility (mg/mL)): < 100 µg/mL |
| CC[C@H](C)[C@@H]([C@@H](CC(=O)N1CCC[C@H]1[C@H](OC)[C@@H](C)C(=O)N[C@H](C)[C@@H](O)c1ccccc1)OC)N(C)C(=O)[C@@H](NC(=O)[C@H](C(C)C)N(C)C(=O)OCc1ccc(NC(=O)[C@H](CCCNC(N)=O)NC(=O)[C@@H](NC(=O)CCOCCOCCOCCOCCNC(=O)CCC(=O)N2Cc3ccccc3C#Cc3ccccc32)C(C)C)cc1)C(C)C [10d] ({DBCO-Suc-PEG4}-V[Cit][PABC][NMeV]V[Dil][Dolaproine]-X1) |  | Y (stable in pH7.4 and 8 buffer at RT for more than 3 days) |  |  | solubility (physchem): < 100 µg/mL |
| CCCC1O[C@@H]2C[C@H]3[C@@H]4C[C@H](F)C5=CC(=O)C=C[C@]5(C)[C@@]4(F)[C@@H](O)C[C@]3(C)[C@]2(C(=O)COc2ccc(NC(=O)OCc3ccc(NC(=O)[C@H](CCCNC(N)=O)NC(=O)[C@@H](NC(=O)[C@@H](CCCCNC(=O)COC4CCCCCc5c4nnn5CCOCCOCCOCCOCCC(=O)NCC[N+](C)(C)C)NC(=O)CCOCCOCCOCCOCCNC(=O)OC[C@@H]4[C@@H]5CCC#CCC[C@@H]54)C(C)C)cc3)cc2)O1 (stereo partly shown) [IIIe] | > 10000 | Y (stable in pH7.4 and 8 buffer at RT for more than 3 days) |  |  |  |
| CC[C@H](C)[C@@H]([C@@H](CC(=O)N1CCC[C@H]1[C@H](OC)[C@@H](C)C(=O)N[C@H](C)[C@@H](O)c1ccccc1)OC)N(C)C(=O)[C@@H](NC(=O)[C@H](C(C)C)N(C)C(=O)OCc1ccc(NC(=O)[C@H](CCCNC(N)=O)NC(=O)[C@@H](NC(=O)[C@@H](CCCCNC(=O)COC2CCCCCc3c2nnn3CCOCCOCCOCCOCCC(=O)NCC[N+](C)(C)C)NC(=O)CCOCCOCCOCCOCCNC(=O)CCC(=O)N2Cc3ccccc3C#Cc3ccccc32)C(C)C)cc1)C(C)C (stereo partly shown) [Ib] ({DBCO-Suc-PEG4}-[dK](X4)V[Cit][PABC][NMeV]V[Dil][Dolaproine]-X1) |  |  | 65 |  |  |
